The supplement of paper PMC10307832

Experiments:
Assay in all cases: relative viability (nuclei count vs DMSO), 5 days (fraction); higher = more cells survive
[1] = compound: C1=CC=C(C(=C1)C2=CC=C(C=C2)C3=CSC4=C3C(=C(C(=O)N4)C#N)O)O + Nc1ncn([C@H]2C[C@H](O)[C@@H](CO)O2)c(=O)n1 [Decitabine] (partner 2 µM)
Procedure, shortened: (§1)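 Dosing by pin tool came one day after lung cancer cell lines were seeded in 1536-well plates, using either one drug or a fixed anchor-drug dose plus five library-drug doses (not always all listed) in √10 steps. After 5 days, nuclei were counted on 4× images. Relative viability is treated-well nuclei count divided by vehicle-well nuclei count, and values are medians of duplicate plates.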

TGX 221 + Olaparib = compound: CC1=CN2C(=O)C=C(N=C2C(=C1)C(C)NC3=CC=CC=C3)N4CCOCC4 [TGX 221] + O=C(c1cc(Cc2n[nH]c(=O)c3ccccc23)ccc1F)N1CCN(C(=O)C2CC2)CC1 [Olaparib] (partner 8 µM)
Procedure, shortened: as §1

[2] = compound: O=C(CCCCCCNC(=O)c1cnc(N(c2ccccc2)c2ccccc2)nc1)NO [Ricolinostat] + C[C@@H](Oc1cc(-c2cnn(C3CCNCC3)c2)cnc1N)c1c(Cl)ccc(F)c1Cl [Crizotinib] (partner 1 µM)
Procedure, shortened: as §1

[3] = compound: O=C(CCCCCCNC(=O)c1cnc(N(c2ccccc2)c2ccccc2)nc1)NO [Ricolinostat] + C[C@]1(O)C[C@@H](c2nc(-c3ccc4ccc(-c5ccccc5)nc4c3)c3c(N)nccn32)C1 [Linsitinib] (partner 1 µM)
Procedure, shortened: as §1

Row | Cell Line | relative viability ([1]; first compound 0.08 µM) | relative viability ([1]; first compound 0.253 µM) | relative viability ([1]; first compound 0.8 µM) | relative viability ([1]; first compound 2.53 µM) | relative viability ([1]; first compound 8 µM) | relative viability (TGX 221 + Olaparib; first compound 0.08 µM) | relative viability (TGX 221 + Olaparib; first compound 0.253 µM) | relative viability (TGX 221 + Olaparib; first compound 0.8 µM) | relative viability (TGX 221 + Olaparib; first compound 2.53 µM) | relative viability (TGX 221 + Olaparib; first compound 8 µM) | relative viability ([2]; first compound 0.08 µM) | relative viability ([2]; first compound 0.253 µM) | relative viability ([2]; first compound 0.8 µM) | relative viability ([2]; first compound 2.53 µM) | relative viability ([3]; first compound 0.08 µM) | relative viability ([3]; first compound 0.253 µM) | relative viability ([3]; first compound 0.8 µM) | relative viability ([3]; first compound 2.53 µM)
1 | NCI-H23 | 0.305 | 0.33 | 0.337 | 0.327 | 0.312 | 0.302 | 0.287 | 0.284 | 0.296 | 0.294 | 0.534 | 0.565 | 0.665 | 0.445 | 0.476 | 0.625 | 0.59 | 0.514
2 | NCI-H322M | 0.679 | 0.667 | 0.747 | 0.69 | 0.731 | 0.699 | 0.701 | 0.876 | 0.716 | 0.681 |  | 0.913 | 0.818 | 0.751 |  | 0.865 | 1.01 | 0.968
3 | NCI-H358 | 0.205 | 0.23 | 0.205 | 0.2 | 0.177 | 0.626 | 0.565 | 0.705 | 0.545 | 0.582 | 0.581 | 0.453 | 0.421 | 0.31 | 0.513 | 0.782 | 0.808 | 0.763
4 | NCI-H441 | 0.28 | 0.3 | 0.286 | 0.242 | 0.233 | 0.578 | 0.571 | 0.515 | 0.524 | 0.589 | 0.587 | 0.625 | 0.615 | 0.633 | 0.478 | 0.62 | 0.624 | 0.396
5 | NCI-H460 | 0.387 | 0.437 | 0.531 | 0.5 | 0.398 | 0.4 | 0.438 | 0.389 | 0.405 | 0.38 | 1.01 | 0.924 | 0.84 | 0.645 | 0.468 | 0.774 | 0.731 | 0.58
6 | NCI-H520 | 0.476 | 0.476 | 0.559 | 0.509 | 0.462 | 0.329 | 0.256 | 0.262 | 0.22 | 0.247 |  | 0.667 | 0.707 | 0.782 |  | 0.991 | 1.02 | 0.869
7 | NCI-H596 | 1.02 | 1.79 | 1.09 | 0.898 | 0.891 | 0.662 | 0.675 | 0.746 | 0.744 | 0.572 | 0.967 | 0.963 | 0.977 | 0.959 | 1.09 | 1.05 | 1 | 1.09
8 | NCI-H647 |  | 0.532 | 0.407 | 0.439 | 0.279 | 0.443 | 0.385 | 0.553 | 0.403 | 0.447 | 1.08 | 1.05 | 1.01 | 0.661 | 1.13 | 1.23 | 1.16 | 0.698
9 | NCI-H650 | 0.297 | 0.333 | 0.307 | 0.312 | 0.315 | 0.409 | 0.359 | 0.371 | 0.348 | 0.334 |  | 0.811 | 0.529 | 0.63 |  | 0.853 | 0.563 | 0.439
10 | NCI-H661 | 0.532 | 0.559 | 0.538 | 0.558 | 0.436 | 0.743 | 0.764 | 0.765 | 0.748 | 0.76 |  | 0.99 | 0.973 | 0.984 |  | 0.53 | 0.792 | 0.779
11 | NCI-H727 | 0.815 | 0.932 | 0.79 | 0.843 | 0.81 | 0.681 | 0.732 | 0.545 | 0.679 | 0.745 | 0.748 | 0.782 | 0.802 | 0.704 | 0.212 | 0.269 | 0.333 | 0.354
12 | NCI-H838 | 0.456 | 0.5 | 0.483 | 0.457 | 0.417 | 0.758 | 0.717 | 0.767 | 0.634 | 0.553 | 0.672 | 0.896 | 0.899 | 0.731 | 0.944 | 1.01 | 1.1 | 0.9
13 | NCI-H1355 | 0.362 | 0.391 | 0.351 | 0.333 | 0.366 | 0.714 | 0.669 | 0.718 | 0.668 | 0.619 |  | 1.01 | 0.995 | 1.02 |  | 0.79 | 0.735 | 0.716
14 | NCI-H1437 | 0.515 | 0.674 | 0.57 | 0.596 | 0.466 | 0.649 | 0.589 | 0.678 | 0.603 | 0.632 | 0.825 | 0.931 | 0.918 | 0.765 | 0.805 | 1.03 | 0.98 | 0.647
15 | NCI-H1651 | 0.538 | 0.639 | 0.548 | 0.593 | 0.464 | 0.183 | 0.199 | 0.166 | 0.161 | 0.18 | 0.843 | 0.84 | 0.88 | 0.816 | 0.72 | 0.871 | 0.93 | 0.816
16 | NCI-H1666 | 0.662 | 0.851 | 0.742 | 0.664 | 0.601 | 0.751 | 0.748 | 0.754 | 0.727 | 0.774 | 0.767 | 1.16 | 0.944 | 0.776 | 0.799 | 0.806 | 0.745 | 0.468
17 | NCI-H1734 | 0.469 | 0.493 | 0.501 | 0.545 | 0.432 | 0.557 | 0.554 | 0.616 | 0.576 | 0.523 | 0.561 | 0.792 | 0.706 | 0.581 | 0.737 | 0.843 | 0.961 | 1
18 | NCI-H1755 | 0.736 | 0.723 | 0.722 | 0.749 | 0.731 | 0.853 | 0.843 | 0.829 | 0.738 | 0.68 | 0.786 |  | 0.893 | 0.79 | 0.901 |  | 0.994 | 0.966
19 | NCI-H1915 | 0.263 | 0.269 | 0.251 | 0.252 | 0.262 | 0.241 | 0.267 | 0.284 | 0.232 | 0.251 | 0.853 | 0.868 | 0.882 | 0.809 | 1.01 | 1.04 | 1.02 | 1.01
